From ChEMBL document CHEMBL1201862, “PubChem BioAssay data set” (2004)
Activity calls are given as the source filed them.

Experiments:
[1] = biological target: T1, Short transient receptor potential channel 4 (Mus musculus, UniProt Q9QUQ5); assay: block of DAMGO-driven TRPC4 calcium entry – cell-based, HEK293 TRPC4/mu-opioid, Fluo-4 calcium, dose response (AID 434942); format: functional;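 note: potency of inhibitors blocking the TRPC4 calcium response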
T1 sequence (Q9QUQ5 whole entry): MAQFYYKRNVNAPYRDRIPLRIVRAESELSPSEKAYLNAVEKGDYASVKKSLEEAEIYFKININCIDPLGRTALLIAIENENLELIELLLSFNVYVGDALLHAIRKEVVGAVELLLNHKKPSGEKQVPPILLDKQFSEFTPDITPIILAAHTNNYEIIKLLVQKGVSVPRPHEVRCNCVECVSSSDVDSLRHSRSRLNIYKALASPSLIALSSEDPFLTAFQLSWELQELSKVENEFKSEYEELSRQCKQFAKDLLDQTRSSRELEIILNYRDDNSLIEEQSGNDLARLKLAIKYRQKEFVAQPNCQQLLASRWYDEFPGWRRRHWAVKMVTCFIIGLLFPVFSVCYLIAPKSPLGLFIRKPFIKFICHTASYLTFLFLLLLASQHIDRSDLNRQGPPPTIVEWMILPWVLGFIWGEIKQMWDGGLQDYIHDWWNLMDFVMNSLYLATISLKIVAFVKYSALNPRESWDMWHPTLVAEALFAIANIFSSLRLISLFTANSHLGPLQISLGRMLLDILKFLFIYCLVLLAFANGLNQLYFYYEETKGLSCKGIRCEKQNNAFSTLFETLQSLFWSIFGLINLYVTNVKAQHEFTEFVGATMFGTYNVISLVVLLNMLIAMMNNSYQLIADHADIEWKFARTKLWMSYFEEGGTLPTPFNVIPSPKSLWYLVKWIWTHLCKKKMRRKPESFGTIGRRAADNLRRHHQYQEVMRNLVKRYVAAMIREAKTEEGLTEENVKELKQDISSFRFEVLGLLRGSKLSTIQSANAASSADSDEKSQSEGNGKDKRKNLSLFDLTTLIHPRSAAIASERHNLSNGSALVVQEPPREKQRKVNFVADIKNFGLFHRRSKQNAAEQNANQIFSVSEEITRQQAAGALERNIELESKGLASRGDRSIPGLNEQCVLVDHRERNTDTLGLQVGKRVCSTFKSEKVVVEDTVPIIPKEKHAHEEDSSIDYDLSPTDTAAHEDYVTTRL

Genome polyprotein = Genome polyprotein (dengue virus type 2, UniProt P29990); assay: flavivirus cap methylation enzyme inhibition – biochemical, confirmation dose response, primary screen (AID 588689); format: functional
Genome polyprotein, sequence (P29990 2492-3391 limits assumed): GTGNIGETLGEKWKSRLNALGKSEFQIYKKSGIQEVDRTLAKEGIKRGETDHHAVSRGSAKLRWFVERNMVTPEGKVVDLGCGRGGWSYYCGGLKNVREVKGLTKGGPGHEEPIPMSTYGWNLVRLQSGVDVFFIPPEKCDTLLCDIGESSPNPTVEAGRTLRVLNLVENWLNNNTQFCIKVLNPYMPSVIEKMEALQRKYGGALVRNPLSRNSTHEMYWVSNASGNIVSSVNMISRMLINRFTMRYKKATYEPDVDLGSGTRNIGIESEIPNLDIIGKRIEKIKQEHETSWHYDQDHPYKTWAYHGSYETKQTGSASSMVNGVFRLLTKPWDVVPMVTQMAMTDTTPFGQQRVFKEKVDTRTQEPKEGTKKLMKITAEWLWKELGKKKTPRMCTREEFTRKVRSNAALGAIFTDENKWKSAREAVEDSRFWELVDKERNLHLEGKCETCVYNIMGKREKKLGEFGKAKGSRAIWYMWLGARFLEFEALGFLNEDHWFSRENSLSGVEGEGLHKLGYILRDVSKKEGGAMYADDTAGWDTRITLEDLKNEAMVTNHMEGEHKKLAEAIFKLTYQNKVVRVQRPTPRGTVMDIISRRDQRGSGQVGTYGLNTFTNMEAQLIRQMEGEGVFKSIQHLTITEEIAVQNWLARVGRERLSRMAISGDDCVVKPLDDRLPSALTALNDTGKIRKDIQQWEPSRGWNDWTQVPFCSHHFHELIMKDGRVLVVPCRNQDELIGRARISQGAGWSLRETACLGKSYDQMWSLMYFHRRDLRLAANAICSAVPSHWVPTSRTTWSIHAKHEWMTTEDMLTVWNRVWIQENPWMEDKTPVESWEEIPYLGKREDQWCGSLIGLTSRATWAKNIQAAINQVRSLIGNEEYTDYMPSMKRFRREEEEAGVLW

[2] = intracellular Trypanosoma cruzi inhibitors in host cells – cell-based, plate reader, cherry-pick samples, set 3, dose response (AID 651818); format: functional;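 note: compounds incubated with infected cells for about four days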
P388/ADR = assay: cells; format: functional; conditions: Mus musculus
P388 = assay: cells; format: functional; conditions: Mus musculus
[3] = NIH-3T3 fibroblast cytotoxicity, dose response, cytotoxicity control, cell-based, fluorescence, Alamar Blue, secondary assay (AID 2327); format: functional;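 note: NIH-3T3 mouse fibroblasts cultured with fluconazole at 8 µg/mL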
[4] = luciferase reporter signal suppression in cells – H4 neuroglioma cells, luminescence, dose response (AID 1990); format: functional, cell-based
cells [5] = format: functional, cell-based
[6] = Luminescence Cell-Based Dose Response HTS to Identify Inhibitors of 5'UTR Stem-Loop Driven Prion Protein mRNA Translation in H4 Neuroglioblastoma Cells. [Related pubchem assays: 1827 (Project Summary), 1813 (Primary HTS)]; format: functional
[7] = alpha-synuclein stem-loop luciferase translation blockers – H4 neuroglioma cells, luminescence, confirmation (AID 1988); format: functional, cell-based
[8] = fluconazole-exposed Candida albicans growth modulators – fluorescence, retest, confirmation (AID 2467); format: functional, cell-based
cells [9] = format: functional, cell-based; remark: listed apart in the source
Nonstructural protein 1 = Nonstructural protein 1 (Influenza A virus, UniProt Q194T2); format: functional, Influenza A virus (A/California/07/2009(H1N1))
Nonstructural protein 1, sequence (Q194T2 whole entry): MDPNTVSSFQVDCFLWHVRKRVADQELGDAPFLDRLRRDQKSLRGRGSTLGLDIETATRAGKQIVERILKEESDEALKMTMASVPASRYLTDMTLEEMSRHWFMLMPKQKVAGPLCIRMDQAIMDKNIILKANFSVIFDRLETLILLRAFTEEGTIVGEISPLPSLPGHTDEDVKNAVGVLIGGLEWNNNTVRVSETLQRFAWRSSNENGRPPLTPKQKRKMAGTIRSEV

[10] = biological target: Heat shock protein HSP 90-alpha (Homo sapiens, UniProt P07900); format: functional, organism-based
INS1 = assay: INS-1E survival protection against cytokine death – cell-based, luminescence, retest, dose response (AID 449756); format: functional; conditions: Rattus norvegicus;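 note: cell death triggered by IL-1 beta plus TNF-alpha plus IFN-gamma mixture; protective hits raise ATP signal compared with cytokine alone wells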
[11] = reduction of Shn3 3'UTR-driven luciferase in osteoblasts – cell-based, Clone20 osteoblasts, firefly luciferase, cherry-picked, dose response (AID 624132); format: functional;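 note: firefly luciferase luminescence from reporter carrying the Shn3 3'UTR in osteoblasts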
[12] = loss of viability in HepG2 cells – cell-based, CellTiter-Glo, cherry-picked, cytotoxicity control for Shn3 inhibitor project, dose response (AID 624134); format: functional
[13] = non-specific 3'UTR reporter inhibition in Clone20-Shn3RL – cell-based, Renilla luciferase, cherry-picked, counter-screen for Shn3 inhibitor project, dose response (AID 624133); format: functional
[14] = biological target: T2, Microphthalmia-associated transcription factor (Homo sapiens, UniProt O75030); assay: reducers of TRPM1 reporter luminescence, concentration series – cell-based, SK-MEL-5, cherry-picked, set 3, MITF inhibitor project, dose response (AID 493073); format: functional;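 note: SK-MEL-5 melanoma cells with luciferase driven by the MITF target TRPM1 promoter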
T2 sequence (O75030 whole entry): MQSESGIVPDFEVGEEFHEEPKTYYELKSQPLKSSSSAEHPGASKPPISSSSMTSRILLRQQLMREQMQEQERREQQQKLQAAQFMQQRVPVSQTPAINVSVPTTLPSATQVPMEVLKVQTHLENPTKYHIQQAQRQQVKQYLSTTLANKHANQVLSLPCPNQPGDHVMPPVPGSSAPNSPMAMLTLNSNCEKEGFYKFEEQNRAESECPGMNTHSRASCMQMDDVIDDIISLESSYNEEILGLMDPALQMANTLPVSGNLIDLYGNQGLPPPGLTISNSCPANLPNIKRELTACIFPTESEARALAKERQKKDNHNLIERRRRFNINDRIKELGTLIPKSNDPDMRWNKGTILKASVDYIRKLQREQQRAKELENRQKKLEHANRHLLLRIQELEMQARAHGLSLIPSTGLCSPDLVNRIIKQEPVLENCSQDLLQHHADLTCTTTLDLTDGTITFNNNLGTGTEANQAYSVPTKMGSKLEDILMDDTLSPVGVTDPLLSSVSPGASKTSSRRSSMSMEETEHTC

[15] = biological target: T3, Replicative DNA helicase DnaB (Mycobacterium tuberculosis, UniProt P9WMR3); assay: DnaB intein splicing inhibitors, dose response, biochemical, cell-free fluorescence (AID 449749); format: functional
T3 sequence (P9WMR3 whole entry): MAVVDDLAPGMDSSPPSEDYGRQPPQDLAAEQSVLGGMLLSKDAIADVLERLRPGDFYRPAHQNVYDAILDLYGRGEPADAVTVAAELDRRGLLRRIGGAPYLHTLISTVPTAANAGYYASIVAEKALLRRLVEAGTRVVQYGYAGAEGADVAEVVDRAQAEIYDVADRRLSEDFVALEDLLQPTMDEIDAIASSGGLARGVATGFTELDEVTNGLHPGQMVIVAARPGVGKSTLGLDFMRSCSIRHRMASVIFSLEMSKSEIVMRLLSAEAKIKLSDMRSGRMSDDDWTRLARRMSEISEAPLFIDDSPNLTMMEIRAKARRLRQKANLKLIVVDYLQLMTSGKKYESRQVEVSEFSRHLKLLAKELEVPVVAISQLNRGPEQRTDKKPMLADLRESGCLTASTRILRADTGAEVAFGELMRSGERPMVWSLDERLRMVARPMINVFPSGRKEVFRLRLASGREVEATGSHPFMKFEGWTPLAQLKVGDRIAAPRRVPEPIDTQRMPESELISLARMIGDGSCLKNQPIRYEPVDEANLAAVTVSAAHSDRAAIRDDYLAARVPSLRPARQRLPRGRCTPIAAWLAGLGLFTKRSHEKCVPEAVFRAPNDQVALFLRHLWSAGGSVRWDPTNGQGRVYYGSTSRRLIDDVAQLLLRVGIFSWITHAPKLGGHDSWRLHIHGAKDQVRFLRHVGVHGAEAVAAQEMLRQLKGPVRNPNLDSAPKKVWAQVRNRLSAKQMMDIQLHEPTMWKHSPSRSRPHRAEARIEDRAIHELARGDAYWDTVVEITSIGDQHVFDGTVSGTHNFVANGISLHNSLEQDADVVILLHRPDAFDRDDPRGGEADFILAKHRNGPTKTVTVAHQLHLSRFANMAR

Protein RecA = biological target: T4, Protein RecA (Mycobacterium tuberculosis, UniProt P9WHJ3); assay: Fluorescence Cell-Free Homogeneous Dose Retest to Identify Inhibitors of RecA-Intein Splicing Activity. [Related pubchem assays (depositor defined):AID2097, AID2223, AID489010, AID492950]; format: functional
T4 sequence (P9WHJ3 whole entry): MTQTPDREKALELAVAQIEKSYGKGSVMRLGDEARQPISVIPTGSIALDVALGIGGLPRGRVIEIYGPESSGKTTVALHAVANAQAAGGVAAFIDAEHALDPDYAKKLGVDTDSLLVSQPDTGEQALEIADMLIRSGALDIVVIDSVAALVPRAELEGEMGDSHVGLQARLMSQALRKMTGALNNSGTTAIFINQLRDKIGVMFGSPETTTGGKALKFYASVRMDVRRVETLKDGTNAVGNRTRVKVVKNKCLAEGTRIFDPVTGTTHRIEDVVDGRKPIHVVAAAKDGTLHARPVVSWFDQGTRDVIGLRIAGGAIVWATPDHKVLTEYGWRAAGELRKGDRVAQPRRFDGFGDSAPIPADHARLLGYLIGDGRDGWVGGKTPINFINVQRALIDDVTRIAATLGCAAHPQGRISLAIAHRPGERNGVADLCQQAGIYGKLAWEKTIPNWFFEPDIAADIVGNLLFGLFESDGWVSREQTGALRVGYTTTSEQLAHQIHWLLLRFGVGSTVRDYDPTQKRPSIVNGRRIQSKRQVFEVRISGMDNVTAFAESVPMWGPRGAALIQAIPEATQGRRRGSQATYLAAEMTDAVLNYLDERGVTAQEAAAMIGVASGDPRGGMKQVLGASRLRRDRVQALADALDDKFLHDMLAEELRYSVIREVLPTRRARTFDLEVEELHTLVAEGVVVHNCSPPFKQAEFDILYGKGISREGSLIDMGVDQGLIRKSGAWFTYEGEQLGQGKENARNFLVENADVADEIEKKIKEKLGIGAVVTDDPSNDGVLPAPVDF

SMILES: CCOc1ccc(Cl)cc1/C=N/O
- EC50 [1]: 4.22 µM (active)

SMILES: COc1cccc(/C=C2/C(=O)NN(c3ccc(F)cc3)C2=O)c1
- IC50 (Genome polyprotein): 38.1 µM (active)

SMILES: C[C@@H]1CN([C@@H](C)CO)C(=O)c2cc(NS(=O)(=O)c3ccc(Cl)cc3)ccc2O[C@H]1CN(C)Cc1ccc(Cl)c(Cl)c1
- AC50 [2]: 3.37 µM (active)

SMILES: COc1cc([C@@H]2c3cc4c(c(O)c3C[C@H]3COC(=O)[C@@H]32)OCO4)cc(OC)c1OC [BETA-PELTATIN A]
- GI50 (P388/ADR): 0.015 µM (active)
- GI50 (P388): 0.015 µM (active)

SMILES: Oc1c(C(Nc2cccc(C(F)(F)F)c2)c2ccncc2)ccc2cccnc12 (stereo unspecified)
- EC50 [3]: 18.3 µM (active)
- EC50 [4]: 11.9 µM (active)
- EC50 (cells [5]): 9.32 µM (active)
- EC50 [6]: 15.3 µM (active)
- EC50 [7]: 9.42 µM (active)
- EC50 [8]: 3.42 µM (active)
- EC50 (cells [9]): > 350 µM (not active)
- IC50 (Nonstructural protein 1): 8.76 µM (active)
- AC50 [10]: 6.48 µM (active)
- AC50 (INS1): 3.82 µM (active)
- AC50 [11]: 5.8 µM (active)
- AC50 [12]: 7.21 µM (active)
- AC50 [13]: 6.9 µM (active)

SMILES: O=C1[C@@H]2C(c3cccnc3)=NO[C@@H]2C(=O)N1c1ccc(Br)cc1
- AC50 [10]: 5.67 µM (active)

SMILES: CC1CCc2c(sc(/N=C/N(C)C)c2C#N)C1 (stereo unspecified)
- EC50 [1]: 2.99 µM (active)

SMILES: CCCCNC(=O)Nc1ccc(C2SCCS2)cc1
- AC50 [14]: 35.3 µM (active)

SMILES: CC1=NN(c2ccccc2)C(=O)/C1=C\c1ccc(Oc2ccc([N+](=O)[O-])cc2[N+](=O)[O-])cc1
- AC50 [15]: 3.66 µM (active)
- EC50 (Protein RecA): 5.33 µM (active)
- IC50 (Genome polyprotein): 19.3 µM (active)

SMILES: CC(/C=C1\SC(=S)N(C(C(=O)O)C(C)C)C1=O)=C\c1ccccc1 (stereo unspecified)
- EC50 [1]: 5.96 µM (active)
- IC50 (Genome polyprotein): 34.3 µM (active)
